Source: US9067898B1, “Isothiazole derivatives as GPR120 agonists for the treatment of type II diabetes” (Janssen Pharmaceutica NV, priority 2014, dated 2015)

Assays:
[1] = target: T1, short form of the GPR120 receptor (GPR120S) (Homo sapiens, UniProt Q5NUL3); assay: Human GPR120 DiscoveRx PathHunter Beta-Arrestin assay, Procedure β-arrestin B; assay type: cell-based; details: PathHunter CHO-K1 GPR120S β-Arrestin cell line, 5000 cells/well, read-out: hGPR120 β-arrestin B EC50
T1 construct: host or cells: PathHunter CHO-K1 GPR120S β-Arrestin Cell Line
T1 sequence (P32121 whole entry partner, one chain of several): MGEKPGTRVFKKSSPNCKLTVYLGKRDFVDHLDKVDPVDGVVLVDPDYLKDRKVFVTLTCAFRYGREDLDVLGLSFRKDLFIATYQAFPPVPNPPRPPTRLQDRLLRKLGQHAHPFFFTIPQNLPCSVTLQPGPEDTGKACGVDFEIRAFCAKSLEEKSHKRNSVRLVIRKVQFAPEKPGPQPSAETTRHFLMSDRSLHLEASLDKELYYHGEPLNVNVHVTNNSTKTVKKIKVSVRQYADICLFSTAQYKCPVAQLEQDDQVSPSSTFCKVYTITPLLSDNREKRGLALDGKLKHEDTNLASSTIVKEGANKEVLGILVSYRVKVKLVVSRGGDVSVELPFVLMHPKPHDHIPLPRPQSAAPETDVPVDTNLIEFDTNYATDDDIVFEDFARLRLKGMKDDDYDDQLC
Source text: The binding of an agonist (medium/long chain fatty acids or small molecule agonists) to the G-protein-coupled receptor GPR120 activates phospholipase C, leading to release of intracellular Ca^+2 through the generation of inositol 1,4,5-trisphosphate (InsP3 or IP3). GPR120 activation can also trigger intracellular signaling via recruitment of Beta-Arrestin. In the present method, agonist-induced activation of the human GPR120 receptor is monitored through the use of PathHunter CHO-K1 GPR120 Beta-Arrestin Cell Line engineered by DiscoveRx, as detailed below. The cell lines are designed to co-express both the ProLink/Enzyme Donor (PK)-tagged GPCR and the Enzyme […] (EA)-tagged Beta-Arrestin fusion proteins. Upon GPR120 receptor stimulation/activation, the EA-tagged Beta-Arrestin portion is translocated to the tagged receptor, where the two enzyme fragments are brought within close proximity. Under these conditions, these fragments can interact and form an active Beta-gal enzyme complex through Enzyme Fragment Complementation (EFC). This active Beta-gal complex can enzymatically hydrolyse the substrate to produce a detectable light signal; therefore, activation as a function of agonist concentration can be expressed as an EC50 value to determine relative compound activities. This in vitro assay therefore serves to assess compound agonist activity of the GPR120. Procedure β-Arrestin A: In Procedure β-arrestin A, the cell used were PathHunter CHO-K1 GPR120 β-Arrestin Cell Line, expressing the long form of human GPR120 (Genbank accession number NM 181745), with 3000 cells per well. Procedure β-Arrestin B: In Procedure 3-arrestin B the cells used were PathHunter CHO-K1 GPR120S β-Arrestin Cell Line, expressing the short form of the GPR120 receptor (Accession #NM_181745), with 5000 cells/well. Assay Procedure:
The selected CHO-K1 GPR120 β-Arrestin cells were cultured in Ham's F12 media supplemented with 10% fetal bovine serum (FBS), 1% Glutamine, lx p/s, 800 μg/mL G418 and 300 μg/mL Hygromycin B (for selection). Cell stocks were maintained and grown in a sub-confluent state using standard cell culture procedures. The day before the experiment, the cells were harvested with non-enzymatic cell dissociation buffer and re-suspended in complete growth media at the desired concentration. A Corning 384-plate was then seeded with the proper number of cells in a volume of 25 μL, per well. The seeded plates were incubated overnight at 37° C.
On the day of the experiment, the Assay Buffer containing (a) HBSS with Ca^++ and Mg^++, (b) 20 mM HEPES, and (c) 0.1% BSA stabilizer (pH 7.4) was prepared. The growth medium was gently removed from the cell plates and 20 μL of Assay Buffer added to each well. The plate was then incubated at 37° C. for 60 min. Test compounds were serially diluted in Assay Buffer to desired concentrations (more particularly to one or more of the following μM concentrations: 25, 12.5, 6.25, 3.125, 1.5625, 0.78125, 0.390625, 0.1953125, 0.09765625, 0.048828125, 0.024414063, 0.012207031). Five μL of compound dilution was then added to each well and the plate incubated at 37° C. for 90 min. The detection reagents were prepared according to the manufacture's instruction. Twelve μL of the detection reagents were added to each well and the plate incubated at room temperature for 60 min.
The plates were read on an EnVision instrument, using Protocol name: Luminescence, Plate type: 384 Costar, Measurement height: 3 mm, Measurement time: 1 s, Aperture: 384 Plate aperture. The % activity relative to the positive control was calculated using the following equation:
The % Activity values were plotted versus the concentration of test compound and fitted to a sigmoidal dose-response curve with a Hill slope=1 (fixed value) using nonlinear regression with GraphPad Prism 5.0 to calculate the EC50 values. […]

[2] = target: T2, Human GPR120 short form (Homo sapiens, UniProt Q5NUL3); assay: Human GPR120 calcium flux assay (FLIPR), Procedure Calcium A; assay type: cell-based; details: HEK-293 cells expressing human GPR120 short form, 2500 cells/well; read-out: GPR120 Ca2+ Assay A EC50
T2 construct: expressed in transfected cells
T2 sequence (Q5NUL3 1-361): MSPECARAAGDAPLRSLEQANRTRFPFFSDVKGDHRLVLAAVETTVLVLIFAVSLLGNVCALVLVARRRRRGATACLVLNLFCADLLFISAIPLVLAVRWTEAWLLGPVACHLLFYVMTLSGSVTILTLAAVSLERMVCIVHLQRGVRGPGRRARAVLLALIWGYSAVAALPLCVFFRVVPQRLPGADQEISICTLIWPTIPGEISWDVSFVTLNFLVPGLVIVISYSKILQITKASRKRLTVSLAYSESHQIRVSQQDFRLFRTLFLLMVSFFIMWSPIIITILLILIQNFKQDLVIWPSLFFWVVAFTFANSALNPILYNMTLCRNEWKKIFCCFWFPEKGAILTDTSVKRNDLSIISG
Method in brief: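 HEK293 cells stably expressing the short isoform (NM_001195755.1), 2500/well, starved 1 h, then loaded with Fluo-4 NW plus probenecid (30 min 37 °C, 15 min RT). Compound solutions 0.012–100 μM, 0.2% DMSO final; FLIPR read 300 s after addition. EC50 from Fmax−Fmin fitted to variable-slope sigmoid (Hill <2).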

Row | EC50 [1] [nM] | EC50 [2] [nM] | Molecule
1 | 427 | 210 | O=C(O)CCc1cc(F)c(OCc2c(C3CCC(F)(F)C3)nsc2C(F)(F)F)c(F)c1 (stereo not drawn) [Cpd 164, 3-(4-[[3-(3,3-difluorocyclopentyl)-5-(trifluoromethyl)-1,2-thiazol-4-yl]methoxy]-3,5-difluorophenyl)propanoic acid]
2 | 374 | 156 | Cc1c(CCC(=O)O)ccc(OCc2c(-c3ccc(F)c(F)c3)nsc2C(F)(F)F)c1C [Cpd 143, 3-(4-((3-(3,4-difluorophenyl)-5-(trifluoromethyl)isothiazol-4-yl)methoxy)-2,3-dimethylphenyl)propanoic acid]
3 | 105 | 94 | O=C(O)CCc1cc(F)c(OCc2c(C(F)(F)F)nsc2-c2ccc(Cl)c(F)c2)c(F)c1 [Cpd 110, 3-(4-[[5-(4-chloro-3-fluorophenyl)-3-(trifluoromethyl)-1,2-thiazol-4-yl]methoxy]-3,5-difluorophenyl) propanoic acid]
4 | 85 | 246 | O=C(O)CCc1cc(F)c(OCc2c(-c3ccc(F)cc3F)nsc2C(F)(F)F)c(F)c1 [Cpd 174, 3-(4-((3-(2,4-difluorophenyl)-5-(trifluoromethyl)isothiazol-4-yl)methoxy)-3,5-difluorophenyl)propanoic acid]
5 | 731 | 756 | Cc1ccc(-c2snc(C(F)(F)F)c2COc2ccc(CCC(=O)O)c(C(F)(F)F)c2)c(F)c1 [Cpd 221, 3-(4-[[5-(2-fluoro-4-methylphenyl)-3-(trifluoromethyl)-1,2-thiazol-4-yl]methoxy]-2-(trifluoromethyl)phenyl)propanoic acid]
6 | 1210 | 226 | Cc1ccc(-c2nsc(C(F)(F)F)c2COc2ccc(CCC(=O)O)c(C(F)(F)F)c2)c(F)c1 [Cpd 171, 3-(4-[[3-(2-fluoro-4-methylphenyl)-5-(trifluoromethyl)-1,2-thiazol-4-yl]methoxy]-2-(trifluoromethyl)phenyl)propanoic acid]
7 | 526 | 135 | Cc1c(CCC(=O)O)ccc(OCc2c(C(F)(F)F)nsc2-c2ccc(Cl)c(F)c2)c1C [Cpd 136, 3-(4-[[5-(4-chloro-3-fluorophenyl)-3-(trifluoromethyl)-1,2-thiazol-4-yl]methoxy]-2,3-dimethylphenyl)propanoic acid]
8 | 153 | 306 | CCc1ccc(-c2nsc(C(F)(F)F)c2COc2c(F)cc(CC(C)C(=O)O)cc2F)c(F)c1 (stereo not drawn) [Cpd 188, 3-(4-((3-(4-ethyl-2-fluorophenyl)-5-(trifluoromethyl)isothiazol-4-yl)methoxy)-3,5-difluorophenyl)-2-methylpropanoic acid]
9 | 352 | 222 | COc1ccc(-c2nsc(C(F)(F)F)c2COc2ccc(CCC(=O)O)c(C)c2C)cn1 [Cpd 167, 3-(4-[[3-(6-methoxypyridin-3-yl)-5-(trifluoromethyl)-1,2-thiazol-4-yl]methoxy]-2,3-dimethylphenyl)propanoic acid]
10 | 415 | 198 | O=C(O)CCc1ccc(OCc2c(C(F)(F)F)nsc2-c2ccc(Cl)cc2)cc1OC(F)(F)F [Cpd 159, 3-(4-[[5-(4-chlorophenyl)-3-(trifluoromethyl)-1,2-thiazol-4-yl]methoxy]-2-(trifluoromethoxy)phenyl) propanoic acid]
11 | 435 | 215 | CC(Cc1ccc(OCc2c(-c3ccc(Cl)c(F)c3)nsc2C(F)(F)F)cc1)C(=O)O (stereo not drawn) [Cpd 165, 3-(4-((3-(4-chloro-3-fluorophenyl)-5-(trifluoromethyl)isothiazol-4-yl)methoxy)phenyl)-2-methylpropanoic acid]
12 | 719 | 182 | Cc1ccc(-c2snc(C(F)(F)F)c2COc2ccc(CCC(=O)O)c(C)c2C)c(F)c1 [Cpd 155, 3-(4-[[5-(2-fluoro-4-methylphenyl)-3-(trifluoromethyl)-1,2-thiazol-4-yl]methoxy]-2,3-dimethylphenyl)propanoic acid]
13 | 59 | 124 | CCc1ccc(-c2nsc(C(F)(F)F)c2COc2c(F)cc(CCC(=O)O)cc2F)c(F)c1 [Cpd 128, 3-(4-((3-(4-ethyl-2-fluorophenyl)-5-(trifluoromethyl)isothiazol-4-yl)methoxy)-3,5-difluorophenyl)propanoic acid]
14 | 310 | 107 | 3-(4-((3-(4-ethylphenyl)-5-(trifluoromethyl)isothiazol-4-yl)methoxy)-2,3,5-trifluorophenyl)propan-1-ol [Cpd 238]
15 | 147 | 229 | COc1ccc(-c2nsc(C(F)(F)F)c2COc2ccc(CCC(=O)O)c(C)c2C)cc1F [Cpd 172, 3-(4-[[3-(3-fluoro-4-methoxyphenyl)-5-(trifluoromethyl)-1,2-thiazol-4-yl]methoxy]-2,3-dimethylphenyl)propanoic acid]
16 | 223 | 121 | COc1cccc(-c2nsc(C(F)(F)F)c2COc2ccc(CCC(=O)O)c(C)c2C)c1 [Cpd 126, 3-(4-[[3-(3-methoxyphenyl)-5-(trifluoromethyl)-1,2-thiazol-4-yl]methoxy]-2,3-dimethylphenyl) propanoic acid]
17 | 227 | 840 | CCc1ccc(-c2nsc(C(F)(F)F)c2COc2ccc(CCC(=O)O)c(C)c2C)c(F)c1 [Cpd 225, 3-(4-((3-(4-ethyl-2-fluorophenyl)-5-(trifluoromethyl)isothiazol-4-yl)methoxy)-2,3-dimethylphenyl)propanoic acid]
18 | 390 | 165 | O=C(O)CCc1cc(F)c(OCc2c(C3CC(F)(F)C3)nsc2C(F)(F)F)c(F)c1 [Cpd 147, 3-(4-[[3-(3,3-difluorocyclobutyl)-5-(trifluoromethyl)-1,2-thiazol-4-yl]methoxy]-3,5-difluorophenyl) propanoic acid]
19 | 104 | 71 | COc1cccc(-c2nsc(C(F)(F)F)c2COc2c(F)cc(CCC(=O)O)cc2F)c1 [Cpd 94, 3-(3,5-difluoro-4-[[3-(3-methoxyphenyl)-5-(trifluoromethyl)-1,2-thiazol-4-yl]methoxy]phenyl)propanoic acid]
20 | 85 | 169 | COc1ccc(-c2nsc(C(F)(F)F)c2COc2c(F)cc(CCC(=O)O)cc2F)c(F)c1 [Cpd 151, 3-(3,5-difluoro-4-[[3-(2-fluoro-4-methoxyphenyl)-5-(trifluoromethyl)-1,2-thiazol-4-yl]methoxy]phenyl)propanoic acid]

Row | Molecule | EC50 [1] [nM] | EC50 [2] [nM]
21 | COc1cc(OCc2c(Cl)nsc2-c2ccccc2C)ccc1CCC(=O)O [Cpd 222, 3-(4-((3-chloro-5-(o-tolyl)isothiazol-4-yl)methoxy)-2-methoxyphenyl)propanoic acid] | 1950 | 757
